Activity calls are given as the source filed them.
What was measured:
[1] = molecular target: Protein Tat (Human immunodeficiency virus type 1 group M subtype B (isolate HXB2)(HIV-1), UniProt P04608); assay type: functional;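 note: tat binding to TAR RNA read out by fluorescence polarization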
[2] = molecular target: Nonstructural protein 1 (Influenza A virus, UniProt Q194T2); assay type: functional, Influenza A virus (A/California/07/2009(H1N1))
[3] = molecular target: T1, Corticotropin-releasing factor receptor 2/Corticotropin-releasing factor-binding protein (Homo sapiens, UniProt P24387+Q13324); assay: Dose Response confirmation of uHTS hits for small molecule antagonists of the CRF-binding protein and CRF-R2 receptor complex.; assay type: functional; details: read-out: IC50_Mean
T1 sequence (Q13324 whole entry): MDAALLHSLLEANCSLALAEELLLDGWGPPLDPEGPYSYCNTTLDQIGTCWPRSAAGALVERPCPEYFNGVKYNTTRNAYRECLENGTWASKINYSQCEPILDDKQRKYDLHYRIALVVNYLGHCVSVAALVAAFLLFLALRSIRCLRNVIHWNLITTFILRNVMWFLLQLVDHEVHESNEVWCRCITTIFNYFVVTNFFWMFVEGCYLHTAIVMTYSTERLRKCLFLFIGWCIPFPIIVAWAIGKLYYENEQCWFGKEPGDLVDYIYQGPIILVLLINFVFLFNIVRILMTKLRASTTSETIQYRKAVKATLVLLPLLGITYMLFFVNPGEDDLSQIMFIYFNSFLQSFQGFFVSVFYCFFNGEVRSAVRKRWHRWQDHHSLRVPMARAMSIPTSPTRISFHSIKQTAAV
T1 sequence (P24387 whole entry): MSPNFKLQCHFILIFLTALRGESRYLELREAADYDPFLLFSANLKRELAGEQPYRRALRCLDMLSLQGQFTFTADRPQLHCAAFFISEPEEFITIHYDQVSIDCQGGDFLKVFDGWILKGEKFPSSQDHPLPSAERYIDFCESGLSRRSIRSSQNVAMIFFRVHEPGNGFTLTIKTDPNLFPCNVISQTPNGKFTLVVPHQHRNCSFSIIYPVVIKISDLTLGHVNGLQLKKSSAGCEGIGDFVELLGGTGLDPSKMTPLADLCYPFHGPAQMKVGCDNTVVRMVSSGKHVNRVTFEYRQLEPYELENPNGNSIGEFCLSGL

[4] = molecular target: T1, Corticotropin-releasing factor receptor 2/Corticotropin-releasing factor-binding protein; assay: activators of CRF receptor 2 with binding protein – uHTS hits, confirmation (AID 602473); assay type: functional; details: read-out: EC50_Mean
[5] = viability loss in HeLa cells – cytotoxicity control for MgcRacGAP inhibitor project, dose response (AID 624300); assay type: functional
[6] = molecular target: T2, Rac GTPase-activating protein 1 (Homo sapiens, UniProt Q9H0H5); assay: blockers of MgcRacGAP-driven Rac1 GTP hydrolysis – biochemical, ADP Hunter fluorescence, primary and confirmatory, confirmation (AID 624330); assay type: functional
T2 sequence (Q9H0H5 whole entry): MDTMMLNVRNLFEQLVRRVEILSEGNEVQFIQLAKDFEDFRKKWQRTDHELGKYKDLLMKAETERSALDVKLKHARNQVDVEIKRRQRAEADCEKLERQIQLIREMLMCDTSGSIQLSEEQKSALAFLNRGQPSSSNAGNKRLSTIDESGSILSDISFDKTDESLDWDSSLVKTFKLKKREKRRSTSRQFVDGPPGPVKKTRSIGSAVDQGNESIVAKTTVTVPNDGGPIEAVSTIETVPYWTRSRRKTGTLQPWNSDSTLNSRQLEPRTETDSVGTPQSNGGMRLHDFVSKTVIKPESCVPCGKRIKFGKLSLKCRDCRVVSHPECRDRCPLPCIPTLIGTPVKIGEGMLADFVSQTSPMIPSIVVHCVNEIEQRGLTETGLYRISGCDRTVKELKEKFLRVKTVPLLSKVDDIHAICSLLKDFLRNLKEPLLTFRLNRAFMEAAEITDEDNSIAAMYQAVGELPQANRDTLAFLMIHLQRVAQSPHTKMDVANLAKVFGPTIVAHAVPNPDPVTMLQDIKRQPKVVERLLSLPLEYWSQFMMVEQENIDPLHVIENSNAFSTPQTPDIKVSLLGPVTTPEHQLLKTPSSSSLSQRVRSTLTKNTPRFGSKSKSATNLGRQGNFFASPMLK

[7] = molecular target: T3, COUP transcription factor 2 (Homo sapiens, UniProt P24468); assay: Luminescence-based cell-based high throughput dose response assay to identify inhibitors of COUP-TFII (NR2F2).; assay type: functional;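 note: HEK293 cells transiently cotransfected with COUP-TFII expression vector and reporter; luciferase reporter luminescence driven by COUP-TFII from the pX2-168 reporter plasmid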
T3 sequence (P24468 whole entry): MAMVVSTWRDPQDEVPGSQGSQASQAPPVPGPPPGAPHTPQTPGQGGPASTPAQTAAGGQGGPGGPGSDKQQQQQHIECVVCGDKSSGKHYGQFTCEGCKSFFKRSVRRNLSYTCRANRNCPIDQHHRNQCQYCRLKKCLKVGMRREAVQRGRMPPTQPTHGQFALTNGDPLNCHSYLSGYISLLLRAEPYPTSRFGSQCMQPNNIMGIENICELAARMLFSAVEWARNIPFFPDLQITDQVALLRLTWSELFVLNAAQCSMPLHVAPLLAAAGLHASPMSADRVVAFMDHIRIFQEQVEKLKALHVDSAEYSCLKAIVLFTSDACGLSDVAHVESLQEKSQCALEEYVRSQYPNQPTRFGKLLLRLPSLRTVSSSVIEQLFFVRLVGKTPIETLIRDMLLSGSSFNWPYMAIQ

[8] = molecular target: T4, Histone-lysine N-methyltransferase NSD2 (Homo sapiens, UniProt O96028); assay type: biochemical
T4 sequence (O96028 whole entry): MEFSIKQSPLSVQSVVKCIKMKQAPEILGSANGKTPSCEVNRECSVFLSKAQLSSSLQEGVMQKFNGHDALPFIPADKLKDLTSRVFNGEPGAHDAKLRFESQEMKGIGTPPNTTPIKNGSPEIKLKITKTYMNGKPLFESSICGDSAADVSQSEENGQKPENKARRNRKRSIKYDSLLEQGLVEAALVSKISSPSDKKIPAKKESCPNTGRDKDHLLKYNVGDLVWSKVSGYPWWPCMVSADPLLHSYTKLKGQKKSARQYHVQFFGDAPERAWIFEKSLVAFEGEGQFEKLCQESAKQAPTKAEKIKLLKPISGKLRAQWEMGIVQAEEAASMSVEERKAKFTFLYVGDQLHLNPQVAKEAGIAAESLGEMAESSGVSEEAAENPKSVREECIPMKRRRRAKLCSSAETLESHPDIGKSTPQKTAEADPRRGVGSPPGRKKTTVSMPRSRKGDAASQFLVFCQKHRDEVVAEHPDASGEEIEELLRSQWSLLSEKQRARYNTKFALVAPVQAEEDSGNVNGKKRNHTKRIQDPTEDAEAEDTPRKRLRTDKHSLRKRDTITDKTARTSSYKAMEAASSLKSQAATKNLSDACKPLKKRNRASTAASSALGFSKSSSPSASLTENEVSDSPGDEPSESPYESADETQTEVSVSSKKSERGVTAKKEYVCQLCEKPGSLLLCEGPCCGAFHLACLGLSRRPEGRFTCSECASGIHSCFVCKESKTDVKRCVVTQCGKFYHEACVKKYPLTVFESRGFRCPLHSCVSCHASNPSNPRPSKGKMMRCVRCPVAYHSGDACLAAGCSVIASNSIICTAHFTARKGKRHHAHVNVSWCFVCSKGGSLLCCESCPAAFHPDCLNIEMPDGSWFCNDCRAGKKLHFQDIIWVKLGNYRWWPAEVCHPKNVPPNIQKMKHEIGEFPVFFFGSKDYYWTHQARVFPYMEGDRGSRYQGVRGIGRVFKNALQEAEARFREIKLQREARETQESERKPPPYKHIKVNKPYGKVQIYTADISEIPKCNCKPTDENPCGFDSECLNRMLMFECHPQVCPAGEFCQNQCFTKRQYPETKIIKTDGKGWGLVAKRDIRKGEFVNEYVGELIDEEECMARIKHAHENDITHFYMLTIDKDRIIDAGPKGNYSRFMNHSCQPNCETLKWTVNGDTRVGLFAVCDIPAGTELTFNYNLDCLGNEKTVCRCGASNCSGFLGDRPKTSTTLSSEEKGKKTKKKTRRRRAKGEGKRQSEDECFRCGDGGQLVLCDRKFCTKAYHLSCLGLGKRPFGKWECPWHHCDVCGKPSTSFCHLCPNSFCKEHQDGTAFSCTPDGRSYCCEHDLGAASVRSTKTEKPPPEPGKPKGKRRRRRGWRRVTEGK

[9] = viability loss in THP-1 monocytes – THP-1 cells, cytotoxicity control for Vif-APOBEC3G degradation inhibitor project, dose response (AID 1117359); assay type: functional; details: THP-1
[10] = molecular target: Glutathione-S-transferase (Schistosoma japonicum, UniProt Q26513); assay: GST-antibody interaction or FRET quenching – biochemical, TR-FRET, artefact control for Vif-APOBEC3G degradation inhibitor project, dose response (AID 1117362); assay type: functional
[11] = Luminescence-based cell-based high throughput dose response assay to identify activators of the DAF-12 from the parasite S. stercoralis (ssDAF-12).; assay type: functional
[12] = molecular target: Oxysterols receptor LXR-beta (Homo sapiens, UniProt P55055); assay: LXR agonists, Gal4 luciferase reporter, dose response, counter-screen for ssDAF-12 agonist project, cell-based, luminescence, HEK293, S. stercoralis campaign (AID 720737); assay type: functional; details: read-out: IC50 (the source's name)
[13] = rise of 2N DNA cells, HeLa – IC50, dose response (AID 1117349); assay type: functional, cell-based
[14] = IC50 of insulin release inhibition, rat insulinoma INS-1E line, 5 mM glucose, cell-based (AID 1117331); assay type: functional
[15] = cells; assay type: functional, cell-based; details: INS-1E
[16] = rise of 4N DNA cells, HeLa – IC50, dose response (AID 1117351); assay type: functional, cell-based
[17] = growth inhibition of yeast DHODH-expressing 3D7 parasites – SYBR Green, dry powder samples, dose response (AID 1159570); assay type: functional, cell-based;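 note: parasite growth measured after 72 hours of compound exposure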
[18] = Dd2 parasite growth inhibition in erythrocytes – SYBR Green, dry powder samples, set 9, dose response (AID 1159568); assay type: functional, cell-based
[19] = P. falciparum Dd2 growth inhibitors, dose response, SYBR Green, cherry-picked samples (AID 1159567); assay type: functional, cell-based
[20] = Dd2 malaria parasite growth inhibition potency – SYBR Green, dry powder samples, dose response (AID 1159566); assay type: functional, cell-based;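 note: potency for growth inhibition with lower SYBR green DNA signal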
[21] = toxicity to human hepatoma HepG2 cells – cell-based, cherry-picked samples, cytotoxicity control, dose response (AID 1159577); assay type: functional
[22] = Plasmodium falciparum Dd2 Sybr green parasite growth Measured in Cell-Based and Microorganism Combination System Using Plate Reader - 2153-01_Inhibitor_Dose_DryPowder_Activity_Set3.; assay type: functional
[23] = growth inhibition of PfATP4-mutant resistant parasites – NITD609-resistant line, SYBR Green, dry powder, dose response (AID 1159571); assay type: functional, cell-based;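 note: parasites synchronized at ring stage by sorbitol before testing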
[24] = Dd2 parasite growth inhibition in erythrocytes – SYBR Green, dry powder samples, set 4, dose response (AID 1159572); assay type: functional, cell-based
[25] = toxicity to human HepG2 hepatoma cells – cell-based, plate reader, dry powder samples, cytotoxicity control, dose response (AID 1159569); assay type: functional;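 note: inhibitor potency with signal falling toward the positive control level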
[26] = CellTiter-Glo luminescence survival assay, SW480 colon tumor line, concentration-response curve, half-maximal inhibitory concentration (AID 1117338); assay type: functional
[27] = RKO cell viability reduction, dose response, CellTiter-Glo luminescence (AID 1117322); assay type: functional
[28] = cytotoxicity toward HCT116 cells – cell-based, CellTiter-Glo luminescence, IC50, dose response (AID 1117332); assay type: functional; details: HCT-116
[29] = SNU-C1 cell viability reduction, dose response, CellTiter-Glo luminescence (AID 1117323); assay type: functional, cell-based
[30] = cytotoxicity toward Colo320 cells – cell-based, CellTiter-Glo luminescence, IC50, dose response (AID 1117334); assay type: functional; details: COLO 320
[31] = cytotoxicity toward HT-29 cells – cell-based, CellTiter-Glo luminescence, IC50, dose response (AID 1117330); assay type: functional
[32] = Reduced DLD-1 viability, concentration-response, CellTiter-Glo luminescence (AID 1117352); assay type: functional

Chain of Nonstructural protein 1 (Q194T2 whole entry): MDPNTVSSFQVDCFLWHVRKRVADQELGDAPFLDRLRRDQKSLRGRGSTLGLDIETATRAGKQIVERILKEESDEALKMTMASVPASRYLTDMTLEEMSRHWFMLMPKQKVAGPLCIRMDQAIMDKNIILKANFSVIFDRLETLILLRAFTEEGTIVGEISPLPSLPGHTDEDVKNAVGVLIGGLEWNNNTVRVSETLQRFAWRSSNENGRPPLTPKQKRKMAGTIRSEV
Chain of Protein Tat (P04608 whole entry): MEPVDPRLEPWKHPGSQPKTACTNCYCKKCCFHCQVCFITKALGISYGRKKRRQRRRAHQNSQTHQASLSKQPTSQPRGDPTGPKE
Chain of Oxysterols receptor LXR-beta (P55055 whole entry, the tested form may be a part): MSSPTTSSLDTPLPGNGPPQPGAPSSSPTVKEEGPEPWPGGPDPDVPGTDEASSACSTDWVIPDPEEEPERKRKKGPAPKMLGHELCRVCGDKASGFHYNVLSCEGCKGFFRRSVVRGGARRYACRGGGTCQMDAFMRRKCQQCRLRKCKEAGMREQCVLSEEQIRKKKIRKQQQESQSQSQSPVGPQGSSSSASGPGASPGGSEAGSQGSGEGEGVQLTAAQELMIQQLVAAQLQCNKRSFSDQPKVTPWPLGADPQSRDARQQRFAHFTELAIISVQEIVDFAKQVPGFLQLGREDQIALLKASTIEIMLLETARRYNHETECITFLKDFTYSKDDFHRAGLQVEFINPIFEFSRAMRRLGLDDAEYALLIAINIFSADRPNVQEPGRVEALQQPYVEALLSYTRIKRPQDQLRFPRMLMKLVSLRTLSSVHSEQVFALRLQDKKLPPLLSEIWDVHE
Chain of Glutathione-S-transferase (Q26513 whole entry): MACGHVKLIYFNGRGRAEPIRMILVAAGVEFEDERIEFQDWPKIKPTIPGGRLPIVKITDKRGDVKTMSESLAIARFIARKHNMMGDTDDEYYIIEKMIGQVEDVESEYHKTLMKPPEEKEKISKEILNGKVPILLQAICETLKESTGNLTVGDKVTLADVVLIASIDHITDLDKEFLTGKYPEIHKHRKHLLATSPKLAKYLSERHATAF

In the case of `COc1ccccc1NC(=O)CN(Cc1ccco1)C(=O)c1cccs1`, the IC50 [1] is reported as > 100 µM (inconclusive).
For `Cc1cc2c(=Cc3ccc(N(C)C)cc3)c3ccccc3n2[n+]1C`, the IC50 [2] was 20.9 µM (active), the IC50 [3] was > 47.1 µM (inactive) and the EC50 [4] was > 53 µM (inactive). The CC50 [5] was 18.5 µM (active), the IC50 [6] was 45.4 µM (active) and the IC50 [7] was 3.87 µM (active). For the same molecule, the AC50 [8] was 17.6 µM (active), the CC50 [9] was 1.02 µM (active) and the IC50 [10] was 7.36 µM (active).
With `O=C(NCc1cccs1)c1cccc2c(-c3ccc(F)c(F)c3)coc12` the IC50 [11] was > 67.5 µM (inactive) and the EC50 [12] was > 67.5 µM (inactive).
In the case of `CC(CC1c2ccccc2CCc2ccccc21)CN(C)C` (stereo unspecified) [BUTRIPTYLINE], the IC50 [13] is reported as > 10 µM (inactive), the IC50 [14] is reported as 3.64 µM (active) and the IC50 [15] is reported as > 33.3 µM (inactive). The IC50 [16] was > 10 µM (inactive).
For `CCCNC(=O)N1[C@H](C#N)[C@H](c2ccc(-c3ccccc3F)cc2)[C@H]1CO`, the AC50 [17] was 14.9 µM (active), the AC50 [18] was 0.0988 µM (active) and the AC50 [19] was < 0.35 µM (active). The AC50 [20] was 0.00986 µM (active), the AC50 [21] was > 42 µM (inactive) and the AC50 [22] was 0.0589 µM (active). For the same molecule, the AC50 [23] was 0.0114 µM (active).
In the case of `COc1ccc2c3c([nH]c2c1)[C@H](CO)N(C(C)=O)CC31CCN(S(=O)(=O)c2cccs2)CC1`, the AC50 [24] is reported as 8.2 µM (active).
With `CO[C@@H]1CN(C)C(=O)c2cc(NC(=O)Nc3ccc(C(F)(F)F)cc3)ccc2OC[C@H](C)NC[C@H]1C` the AC50 [17] was 1.61 µM (active), the AC50 [25] was 19.3 µM (active) and the AC50 [19] was 2.01 µM (active). The AC50 [20] was 2.28 µM (active) and the AC50 [23] was 3.24 µM (active).
In the case of `CCCCCCOc1ccccc1C(N)=O` [EXALAMIDE], the IC50 [26] is reported as > 20 µM (inactive), the IC50 [27] is reported as > 6.67 µM (inactive) and the IC50 [28] is reported as > 6.67 µM (inactive). For the same molecule, the IC50 [29] was 9.36 µM (inactive), the IC50 [30] was > 20 µM (inactive) and the IC50 [31] was > 20 µM (inactive). For the same molecule, the IC50 [32] was 8.67 µM (inactive).

From ChEMBL document CHEMBL1201862, “PubChem BioAssay data set” (2004)
